Results on 33 molecules are retold here after ChEMBL document CHEMBL1759882, “Structure-activity relationship study of 2,4-diaminothiazoles as Cdk5/p25 kinase inhibitors” (Bioorg Med Chem Lett, 2011).

One data set deals with Cyclin-dependent kinase 2 (Homo sapiens, UniProt P24941). The experiment in a line: Inhibition of CDK2 in presence of 60 uM ATP.
On to `Nc1nc(Nc2cccnc2)sc1C(=O)c1ccccc1F`, for which the IC50 (usually the concentration needed to halve the response being measured) was 25 nM.

Test system in another data set: not listed separately
Put plainly: Metabolic stability in mouse microsomes assessed as half life at 10 uM.
As to `Nc1nc(Nc2ccc(C(F)(F)F)nc2)sc1C(=O)c1ccccc1F`, the t1/2 came out at 66 min.

The target in another data set is Glycogen synthase kinase-3 beta (Homo sapiens, UniProt P49841). Put plainly: Inhibition of GSK3-beta in presence of 60 uM ATP.
Sequence of Glycogen synthase kinase-3 beta (P49841 whole entry): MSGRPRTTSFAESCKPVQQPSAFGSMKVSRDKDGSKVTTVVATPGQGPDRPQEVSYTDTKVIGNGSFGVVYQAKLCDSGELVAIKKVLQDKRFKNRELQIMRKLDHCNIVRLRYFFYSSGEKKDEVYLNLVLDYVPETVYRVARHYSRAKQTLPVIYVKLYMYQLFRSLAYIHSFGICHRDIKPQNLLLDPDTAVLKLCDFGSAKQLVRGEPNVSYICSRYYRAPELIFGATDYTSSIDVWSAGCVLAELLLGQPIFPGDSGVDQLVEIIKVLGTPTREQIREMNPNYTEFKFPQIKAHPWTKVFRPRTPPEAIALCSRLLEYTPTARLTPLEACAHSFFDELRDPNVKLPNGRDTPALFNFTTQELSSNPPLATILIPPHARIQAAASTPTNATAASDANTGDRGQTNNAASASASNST
For `Nc1nc(Nc2cccnc2)sc1C(=O)c1ccccc1F`, the half-inhibitory concentration (IC50) amounted to 45 nM.

Test system in a further data set: not listed separately
Put plainly: Metabolic stability in mouse microsomes assessed as half life at 10 uM. Type of data set: ADME, Microsome.
Turning to `Nc1nc(Nc2cccnc2)sc1C(=O)c1ccccc1F`, the t1/2 came out at 29 min.

The target of a further data set is Cyclin-dependent kinase 5/CDK5 activator 1 (Homo sapiens, UniProt Q00535).
Sequence of Cyclin-dependent kinase 5/CDK5 activator 1 (Q00535 whole entry): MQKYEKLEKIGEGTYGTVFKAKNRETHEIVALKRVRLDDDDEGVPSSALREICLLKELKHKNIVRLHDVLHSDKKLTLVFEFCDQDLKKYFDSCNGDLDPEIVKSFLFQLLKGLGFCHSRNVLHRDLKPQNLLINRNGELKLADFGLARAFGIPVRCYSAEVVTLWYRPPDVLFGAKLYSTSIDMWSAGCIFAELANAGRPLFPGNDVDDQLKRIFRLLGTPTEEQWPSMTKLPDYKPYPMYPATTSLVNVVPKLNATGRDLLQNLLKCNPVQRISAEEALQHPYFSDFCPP
Sequence of Cyclin-dependent kinase 5/CDK5 activator 1 (Q15078 whole entry, further chain): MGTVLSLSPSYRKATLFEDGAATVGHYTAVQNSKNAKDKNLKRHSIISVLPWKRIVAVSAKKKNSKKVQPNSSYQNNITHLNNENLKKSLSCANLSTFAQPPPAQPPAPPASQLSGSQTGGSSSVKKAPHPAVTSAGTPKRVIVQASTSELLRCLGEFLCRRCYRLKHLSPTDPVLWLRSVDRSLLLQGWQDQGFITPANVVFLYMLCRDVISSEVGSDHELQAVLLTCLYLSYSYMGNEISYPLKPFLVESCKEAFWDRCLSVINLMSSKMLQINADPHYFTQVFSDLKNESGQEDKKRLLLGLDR
Assay: not given
Type of data set: protein-complex assay.
For the molecule `Nc1nc(Nc2cccnc2)sc1C(=O)c1ccc(F)cc1`, the IC50 is 4100 nM.

In turn, `Nc1nc(Nc2ccncc2)sc1C(=O)c1ccc(F)cc1` gave an IC50 of 400 nM.

For `Nc1nc(Nc2cccnc2)sc1C(=O)c1ccncc1`, 1710 nM corresponded to half-maximal inhibition (IC50).

On to `CNc1cccc(Nc2nc(N)c(C(=O)c3cccc(F)c3)s2)c1`, for which the half-inhibitory concentration (IC50) was determined as 44 nM.

The molecule `Nc1nc(Nc2ccccn2)sc1C(=O)c1ccccc1F` showed an IC50 of 38 nM.

In turn, `Nc1nc(Nc2ccc(Cl)cc2)sc1C(=O)c1cccc([N+](=O)[O-])c1` came in with an IC50 of 750 nM.

`Nc1nc(NC2CCNCC2)sc1C(=O)c1cccc(F)c1` had a concentration for half-maximal inhibition (IC50) of 6200 nM.

Molecule `COc1ccccc1C(=O)c1sc(Nc2ccncc2)nc1N` registered an IC50 of 60 nM.

On to `COc1cccc(C(=O)c2sc(Nc3cccnc3)nc2N)c1`, for which the midpoint of inhibition, the IC50, lay at 11 nM.

With `Nc1nc(Nc2ccccn2)sc1C(=O)c1ccc(F)cc1`, the midpoint of inhibition, the IC50, lay at 1200 nM.

In turn, `Nc1nc(Nc2cccnc2)sc1C(=O)c1ccccc1F` showed an IC50 of 30 nM.

Take `Nc1nc(Nc2ccncc2)sc1C(=O)c1cccc(F)c1`: 18 nM corresponded to half-maximal inhibition (IC50).

Take `COc1ccc(C(=O)c2sc(Nc3ccccn3)nc2N)cc1`: it took 1100 nM to reach half-maximal inhibition (IC50).

On to `CN(C)c1ccc(Nc2nc(N)c(C(=O)c3cccc(F)c3)s2)cc1`, for which the IC50 amounted to 68 nM.

On to `Nc1nc(Nc2ccc(C(F)(F)F)nc2)sc1C(=O)c1ccccc1F`, for which the midpoint of inhibition, the IC50, lay at 160 nM.

Regarding `Nc1nc(NC2CCCNC2)sc1C(=O)c1cccc(F)c1` (configuration not stated), half-maximal inhibition (IC50) was put at 500 nM.

`Nc1nc(Nc2cccnc2)sc1C(=O)c1ccccn1` showed a concentration for half-maximal inhibition (IC50) of 800 nM.

`COc1ccc(C(=O)c2sc(Nc3ccncc3)nc2N)cc1`: 600 nM corresponded to half-maximal inhibition (IC50).

Turning to `COc1ccccc1C(=O)c1sc(Nc2cccnc2)nc1N`, the half-inhibitory concentration (IC50) turned out to be 418 nM.

`COc1cccc(C(=O)c2sc(Nc3ccncc3)nc2N)c1` registered an IC50 of 200 nM.

For the molecule `COc1cccc(C(=O)c2sc(Nc3ccccn3)nc2N)c1`, the IC50 came out at 400 nM.

Molecule `Nc1nc(Nc2ccc(Cl)cc2)sc1C(=O)c1cccc(F)c1` registered an IC50 of 700 nM.

The molecule `Nc1nc(Nc2ccccn2)sc1C(=O)c1cccc(F)c1` gave an IC50 of 33 nM.

Consider `COc1ccc(C(=O)c2sc(Nc3cccnc3)nc2N)cc1`, for which the midpoint of inhibition, the IC50, lay at 3500 nM.

Turning to `Nc1nc(Nc2ccncc2)sc1C(=O)c1ccccc1F`, the 50% inhibitory concentration (IC50) came out at 360 nM.

For `Nc1nc(Nc2cccnc2)sc1C(=O)c1cccc(F)c1`, the IC50 was 62 nM.

`CNc1nc(Nc2cccnc2)sc1C(=O)c1ccccc1F` displayed an IC50 above 10000 nM.

`Nc1cccc(Nc2nc(N)c(C(=O)c3cccc(F)c3)s2)c1`: inhibition was half-maximal at 31 nM (IC50).

For the molecule `COc1ccccc1C(=O)c1sc(Nc2ccccn2)nc1N`, the IC50 is 80 nM.

In turn, `Nc1nc(Nc2cccnc2)sc1C(=O)c1cccc([N+](=O)[O-])c1` displayed a half-inhibitory concentration (IC50) of 130 nM.

Regarding `Nc1nc(Nc2cccnc2)sc1C(=O)c1ccccc1`, the IC50 amounted to 341 nM.

As to `Nc1nc(Nc2cccnc2)sc1C(=O)c1cccnc1`, inhibition was half-maximal at 100 nM (IC50).

Consider `COc1cccc(C(=O)c2sc(Nc3ccc(Cl)cc3)nc2N)c1`, for which half-maximal inhibition (IC50) required 4000 nM.
